Laboratory results published in the supplement of paper PMC10307832.

How the values were obtained:
Test in all cases: relative viability (nuclei count vs DMSO), 5 days (fraction); higher = more cells survive
SGI-1776 + Alpelisib = compound: CN1CCC(CNc2ccc3ncc(-c4cccc(OC(F)(F)F)c4)n3n2)CC1 [SGI-1776] + Cc1nc(NC(=O)N2CCC[C@H]2C(N)=O)sc1-c1ccnc(C(C)(C)C(F)(F)F)c1 [Alpelisib] (partner 2 µM)
Method in brief: (§1)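 Dosing by pin tool came one day after lung cancer cell lines were seeded in 1536-well plates, using either one drug or a fixed anchor-drug dose plus five library-drug doses (not always all listed) in √10 steps. After 5 days, nuclei were counted on 4× images. Relative viability is treated-well nuclei count divided by vehicle-well nuclei count, and values are medians of duplicate plates.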

SGI-1776 + Vorinostat = compound: CN1CCC(CNc2ccc3ncc(-c4cccc(OC(F)(F)F)c4)n3n2)CC1 [SGI-1776] + O=C(CCCCCCC(=O)Nc1ccccc1)NO [Vorinostat] (partner 1 µM)
Method in brief: as §1

Entinostat + Tozasertib = compound: Nc1ccccc1NC(=O)c1ccc(CNC(=O)OCc2cccnc2)cc1 [Entinostat] + Cc1cc(Nc2cc(N3CCN(C)CC3)nc(Sc3ccc(NC(=O)C4CC4)cc3)n2)n[nH]1 [Tozasertib] (partner 0.1 µM)
Method in brief: as §1

Entinostat + Dasatinib = compound: Nc1ccccc1NC(=O)c1ccc(CNC(=O)OCc2cccnc2)cc1 [Entinostat] + Cc1nc(Nc2ncc(C(=O)Nc3c(C)cccc3Cl)s2)cc(N2CCN(CCO)CC2)n1 [Dasatinib] (partner 0.075 µM)
Method in brief: as §1

Row | Cell Line | relative viability (SGI-1776 + Alpelisib; first compound 0.08 µM) | relative viability (SGI-1776 + Alpelisib; first compound 0.8 µM) | relative viability (SGI-1776 + Alpelisib; first compound 2.53 µM) | relative viability (SGI-1776 + Alpelisib; first compound 8 µM) | relative viability (SGI-1776 + Vorinostat; first compound 0.08 µM) | relative viability (SGI-1776 + Vorinostat; first compound 0.8 µM) | relative viability (SGI-1776 + Vorinostat; first compound 2.53 µM) | relative viability (SGI-1776 + Vorinostat; first compound 8 µM) | relative viability (Entinostat + Tozasertib; first compound 0.02 µM) | relative viability (Entinostat + Tozasertib; first compound 0.06325 µM) | relative viability (Entinostat + Tozasertib; first compound 0.2 µM) | relative viability (Entinostat + Tozasertib; first compound 0.6325 µM) | relative viability (Entinostat + Tozasertib; first compound 2 µM) | relative viability (Entinostat + Dasatinib; first compound 0.02 µM) | relative viability (Entinostat + Dasatinib; first compound 0.06325 µM) | relative viability (Entinostat + Dasatinib; first compound 0.2 µM) | relative viability (Entinostat + Dasatinib; first compound 0.6325 µM) | relative viability (Entinostat + Dasatinib; first compound 2 µM)
1 | NCI-H1666 | 1.06 | 1 | 1.01 | 0.49 | 0.999 | 0.971 | 0.957 | 1.01 | 0.562 | 0.535 | 0.471 | 0.405 | 0.346 | 0.751 | 0.781 | 0.833 | 0.595 | 0.455
2 | NCI-H1993 | 0.631 | 0.684 | 0.687 | 0.594 | 1.13 | 0.626 | 0.523 | 0.457 | 0.615 | 0.605 | 0.519 | 0.542 | 0.487 | 0.747 | 0.591 | 0.535 | 0.496 | 0.259
3 | COR-L23 | 0.935 | 0.697 | 0.743 | 0.521 | 0.581 | 0.387 | 0.41 | 0.327 | 0.159 | 0.19 | 0.198 | 0.0831 | 0.0903 | 0.45 | 0.444 | 0.398 | 0.22 | 0.112
4 | LU99A | 0.614 | 0.525 | 0.552 | 0.406 | 0.463 | 0.531 | 0.56 | 0.443 | 0.281 | 0.294 | 0.292 | 0.239 | 0.228 | 0.529 | 0.577 | 0.451 | 0.477 | 0.439
5 | NCI-H460 | 0.488 | 0.481 | 0.433 | 0.121 | 0.887 | 0.688 | 0.717 | 0.715 | 0.395 | 0.0956 | 0.0498 | 0.0451 | 0.0275 | 0.52 | 0.548 | 0.235 | 0.0904 | 0.0466
6 | NCI-H650 | 1.19 | 1.04 | 1.04 | 0.921 | 0.536 | 0.453 | 0.477 | 0.376 | 0.739 | 0.652 | 0.555 | 0.482 | 0.212 | 0.496 | 0.498 | 0.455 | 0.357 | 0.26
7 | NCI-H1975 | 0.674 | 0.598 | 0.501 | 0.322 | 0.745 | 0.725 | 0.683 | 0.589 | 0.516 | 0.352 | 0.249 | 0.122 | 0.115 | 0.352 | 0.307 | 0.316 | 0.199 | 0.134
8 | NCI-H1355 | 0.835 | 0.97 | 0.847 | 0.66 | 0.692 | 0.709 | 0.651 | 0.551 | 0.525 | 0.484 | 0.412 | 0.303 | 0.275 | 0.69 | 0.687 | 0.583 | 0.429 | 0.306
9 | NCI-H1755 | 0.996 | 0.944 | 0.885 | 0.795 | 0.809 | 0.87 | 0.733 | 0.6 | 0.603 | 0.505 | 0.464 | 0.361 | 0.357 | 0.431 | 0.503 | 0.445 | 0.28 | 0.218
10 | NCI-H2009 | 1.21 | 1.17 | 1.25 | 1.09 | 0.756 | 0.761 | 0.671 | 0.588 | 0.713 | 0.753 | 0.647 | 0.452 | 0.336 | 0.329 | 0.331 | 0.376 | 0.346 | 0.241
11 | LK-2 | 0.93 | 1.06 | 0.829 | 0.793 | 0.35 | 0.347 | 0.23 | 0.321 | 0.151 | 0.176 | 0.168 | 0.159 | 0.168 | 0.292 | 0.389 | 0.388 | 0.286 | 0.301
12 | HCC-78 | 0.37 | 0.333 | 0.315 | 0.248 | 0.456 | 0.44 | 0.501 | 0.339 | 0.577 | 0.432 | 0.248 | 0.241 | 0.173 | 0.432 | 0.39 | 0.316 | 0.277 | 0.291
13 | NCI-H3122 | 0.707 | 0.837 | 0.868 | 0.757 | 1.15 | 0.917 | 1.07 | 1.07 | 0.334 | 0.36 | 0.479 | 0.275 | 0.102 | 1.03 | 0.98 | 0.812 | 0.629 | 0.0849
14 | HOP-62 | 0.914 | 0.942 | 0.979 | 0.807 | 0.765 | 0.67 | 0.648 | 0.544 | 0.355 | 0.312 | 0.304 | 0.228 | 0.152 | 0.718 | 0.682 | 0.588 | 0.29 | 0.161
15 | NCI-H661 | 0.81 | 1.06 | 0.592 | 0.479 | 0.822 | 0.805 | 0.871 | 0.829 | 0.339 | 0.332 | 0.282 | 0.334 | 0.396 | 1.04 | 0.967 | 1.03 | 0.771 | 0.372
16 | NCI-H358 | 0.786 | 0.837 | 0.751 | 0.405 | 0.686 | 1.06 | 0.634 | 0.625 | 0.0897 | 0.0965 | 0.0816 | 0.0915 | 0.0853 | 0.181 | 0.136 | 0.158 | 0.115 | 0.109
